Several values for one entry are separate records, joined by “and”; a condition that tells them apart may be missing. Identical values can stand only once.
Key:
Format in all cases: in vivo, human
[1] = Safety assessments in the studies (adverse events, vital signs, ECGs, laboratory tests); details: healthy subjects in the studies, 5 or 10 mg single doses
Source text: Safety assessments were made based on adverse event reports and the results of vital sign measurements, ECGs, physical examinations, and clinical laboratory tests.

[2] = Study 3: open-label 3-way crossover, liquid formulation oral vs NGT with Boost Plus vs crushed tablet via NGT; details: for half-life / AUC(0-t) / AUC(0-inf) / Tmax: human, plasma, 5 mg; for Tmax: read-out: Tmax Median
Description: The apixaban liquid formulation was administered orally (PO), via nasogastric tube (NGT) with different flush media, or with an enteral meal (BOOST Plus®). Frel of a crushed tablet administered via NGT versus oral liquid formulation was also evaluated. […] The effect of different flush media [D5W and infant formula (Similac®)] and coadministered nutritional supplement (Boost Plus®) on the liquid formulation's bioavailability was assessed.
(§1) Three open-label, randomized, crossover studies were conducted. […] Serial pharmacokinetics samples were collected. […] Frel was defined as the ratio of AUCinf.
(§2) Key exclusion criteria included: (i) any history or evidence of abnormal bleeding or coagulation disorders, intracranial hemorrhage, or abnormal bleeding; (ii) any gastrointestinal surgery that could impact upon the absorption of study drug; and (iii) current or recent (within 3 months) gastrointestinal disease including, but not limited to dyspepsia, gastrointestinal ulcers, esophageal or gastric varices, or hemorrhoids.

[3] = Study 2: open-label 3-way crossover, liquid formulation oral vs NGT with D5W or infant formula flush; details: for half-life / Tmax / AUC(0-t) / AUC(0-inf): human, plasma, 5 mg
Description: (§3) Frel of a crushed tablet administered via NGT versus oral liquid formulation was also evaluated. […] The effect of different flush media [D5W and infant formula (Similac®)] and coadministered nutritional supplement (Boost Plus®) on the liquid formulation's bioavailability was assessed.
as §1, §2

[4] = Study 1: open-label 2-way crossover relative bioavailability, tablet vs oral liquid formulation; details: for Tmax / AUC(0-t) / AUC(0-inf) / half-life: human, plasma; for half-life: read-out: T1/2 Mean (converted)
Description: as §3, §1, §2

[5] = Study 1, Treatment A: 2 × 5 mg Phase 3 tablets, oral, healthy subjects

COc1ccc(-n2nc(C(N)=O)c3c2C(=O)N(c2ccc(N4CCCCC4=O)cc2)CC3)cc1 [Apixaban, 4,5,6,7-tetrahydro-1-(4-methoxyphenyl)-7-oxo-6-[4-(2-oxo-1-piperidinyl)phenyl]-1H-pyrazolo[3,4-c]pyridine-3-carboxamide]
safety and tolerability [1]: safe and well tolerated | Cmax Geo. Mean (% CV) ([2]; Study 3, TRT A: 5 mg oral liquid formulation (0.4 mg/mL × 12.5 mL) administered orally): 177 ng/mL | Cmax Adj.Geo.Mean ([2]; Study 3, TRT A: 5 mg oral liquid formulation administered orally): 179 ng/mL | Frel Geo. Mean ([2]; Study 3, TRT B (liquid formulation after Boost Plus via NGT) versus oral liquid formulation): 0.813 | Cmax Geo. Mean (% CV) ([2]; Study 3, TRT B: 5 mg oral liquid formulation (0.4 mg/mL × 12.5 mL) after Boost Plus via NGT): 121 ng/mL | Cmax Adj.Geo.Mean ([2]; Study 3, TRT B: 5 mg oral liquid formulation after Boost Plus via NGT): 122 ng/mL | Frel Geo. Mean ([2]; Study 3, TRT C (crushed tablet via NGT) versus oral liquid formulation): 0.951 | Cmax Adj.Geo.Mean ([2]; Study 3, TRT C: 5 mg crushed tablet via NGT): 158 ng/mL | Cmax Geo. Mean (% CV) ([2]; Study 3, TRT C: 5 mg crushed tablet via NGT (suspended in 60 mL D5W)): 158 ng/mL | Frel ([2]; Study 3, crushed tablet via NGT versus oral liquid formulation): 95% | Frel ([2]; Study 3, liquid formulation with BOOST Plus via NGT versus oral liquid formulation): 81% | half-life ([2]; Study 3, between the 3 treatments, read-out: mean T1/2): 9.6 to 11.2 h | AUC(0-t) ([2]; other: via nasogastric tube (NGT), Study 3, TRT C: 5 mg crushed tablet via NGT (suspended in 60 mL D5W), read-out: AUC(0-T) Geo. Mean (% CV)): 1300 ng·h/mL | AUC(0-inf) ([2]; other: via nasogastric tube (NGT), Study 3, TRT C: 5 mg crushed tablet via NGT (suspended in 60 mL D5W), read-out: AUCinf Geo. Mean (% CV)): 1320 ng·h/mL | half-life ([2]; other: via nasogastric tube (NGT), Study 3, TRT C: 5 mg crushed tablet via NGT (suspended in 60 mL D5W), read-out: T1/2 Mean (converted)): 10.4 h | Tmax ([2]; other: via nasogastric tube (NGT), Study 3, TRT C: 5 mg crushed tablet via NGT (suspended in 60 mL D5W)): 1 h | AUC(0-t) ([2]; other: via nasogastric tube (NGT), Study 3, TRT C: 5 mg crushed tablet via NGT, read-out: AUC(0-T) Adj.Geo.Mean): 1300 ng·h/mL | AUC(0-inf) ([2]; other: via nasogastric tube (NGT), Study 3, TRT C: 5 mg crushed tablet via NGT, read-out: AUCinf Adj.Geo.Mean): 1330 ng·h/mL | AUC(0-t) ([2]; po, Study 3, TRT A: 5 mg oral liquid formulation (0.4 mg/mL × 12.5 mL) administered orally, read-out: AUC(0-T) Geo. Mean (% CV)): 1350 ng·h/mL | AUC(0-inf) ([2]; po, Study 3, TRT A: 5 mg oral liquid formulation (0.4 mg/mL × 12.5 mL) administered orally, read-out: AUCinf Geo. Mean (% CV)): 1380 ng·h/mL | half-life ([2]; po, Study 3, TRT A: 5 mg oral liquid formulation (0.4 mg/mL × 12.5 mL) administered orally, read-out: T1/2 Mean (converted)): 11.2 h | Tmax ([2]; po, Study 3, TRT A: 5 mg oral liquid formulation (0.4 mg/mL × 12.5 mL) administered orally): 1 h | AUC(0-t) ([2]; po, Study 3, TRT A: 5 mg oral liquid formulation administered orally, read-out: AUC(0-T) Adj.Geo.Mean): 1370 ng·h/mL | AUC(0-inf) ([2]; po, Study 3, TRT A: 5 mg oral liquid formulation administered orally, read-out: AUCinf Adj.Geo.Mean): 1400 ng·h/mL | AUC(0-t) ([2]; po, Study 3, TRT B: 5 mg oral liquid formulation (0.4 mg/mL × 12.5 mL) after Boost Plus via NGT, read-out: AUC(0-T) Geo. Mean (% CV)): 1100 ng·h/mL | AUC(0-inf) ([2]; po, Study 3, TRT B: 5 mg oral liquid formulation (0.4 mg/mL × 12.5 mL) after Boost Plus via NGT, read-out: AUCinf Geo. Mean (% CV)): 1120 ng·h/mL | half-life ([2]; po, Study 3, TRT B: 5 mg oral liquid formulation (0.4 mg/mL × 12.5 mL) after Boost Plus via NGT, read-out: T1/2 Mean (converted)): 9.56 h | Tmax ([2]; po, Study 3, TRT B: 5 mg oral liquid formulation (0.4 mg/mL × 12.5 mL) after Boost Plus via NGT): 3 h | AUC(0-t) ([2]; po, Study 3, TRT B: 5 mg oral liquid formulation after Boost Plus via NGT, read-out: AUC(0-T) Adj.Geo.Mean): 1110 ng·h/mL | AUC(0-inf) ([2]; po, Study 3, TRT B: 5 mg oral liquid formulation after Boost Plus via NGT, read-out: AUCinf Adj.Geo.Mean): 1140 ng·h/mL | Cmax Geo. Mean ([3]; Study 2, Treatment A: 5 mg (12.5 mL) liquid formulation by mouth via oral syringe): 189 ng/mL | Cmax Adj.Geo.Mean ([3]; Study 2, Treatment A: liquid formulation by mouth): 191 ng/mL | Cmax Adj.Geo.Mean ([3]; Study 2, Treatment B: liquid formulation via NGT, D5W flush): 182 ng/mL | Frel Geo. Mean ([3]; Study 2, Treatment C (NGT, infant formula flush) versus oral liquid formulation): 0.922 | Cmax Geo. Mean ([3]; Study 2, Treatment C: 5 mg (12.5 mL) liquid formulation via NGT followed by 60 mL of infant formula via NGT): 153 ng/mL | Cmax Adj.Geo.Mean ([3]; Study 2, Treatment C: liquid formulation via NGT, infant formula flush): 154 ng/mL | Frel ([3]; Study 2, liquid formulation via NGT flushed with 60 mL infant formula versus oral liquid formulation): 92.2% and 92% | half-life ([3]; Study 2, across the 3 treatments, read-out: mean T1/2 (converted)): ~10.5 h | Tmax ([3]; Study 2, across the 3 treatments, read-out: median Tmax): 0.5 to 1 h | AUC(0-t) ([3]; oral, Study 2, Treatment A: liquid formulation by mouth, read-out: AUC(0-T) Adj.Geo.Mean): 1270 ng·h/mL | AUC(0-inf) ([3]; oral, Study 2, Treatment A: liquid formulation by mouth, read-out: AUCinf Adj.Geo.Mean): 1290 ng·h/mL | AUC(0-t) ([3]; other: via nasogastric tube (NGT), Study 2, Treatment B: liquid formulation via NGT, D5W flush, read-out: AUC(0-T) Adj.Geo.Mean): 1230 ng·h/mL | AUC(0-inf) ([3]; other: via nasogastric tube (NGT), Study 2, Treatment B: liquid formulation via NGT, D5W flush, read-out: AUCinf Adj.Geo.Mean): 1250 ng·h/mL | AUC(0-t) ([3]; other: via nasogastric tube (NGT), Study 2, Treatment C: liquid formulation via NGT, infant formula flush, read-out: AUC(0-T) Adj.Geo.Mean): 1170 ng·h/mL | AUC(0-inf) ([3]; other: via nasogastric tube (NGT), Study 2, Treatment C: liquid formulation via NGT, infant formula flush, read-out: AUCinf Adj.Geo.Mean): 1190 ng·h/mL | AUC(0-t) ([3]; po, Study 2, Treatment A: 5 mg (12.5 mL) liquid formulation by mouth via oral syringe, read-out: AUC(0-T) Geo. Mean): 1260 ng·h/mL | AUC(0-inf) ([3]; po, Study 2, Treatment A: 5 mg (12.5 mL) liquid formulation by mouth via oral syringe, read-out: AUCinf Geo. Mean): 1280 ng·h/mL | half-life ([3]; po, Study 2, Treatment A: 5 mg (12.5 mL) liquid formulation by mouth via oral syringe, read-out: T1/2 Mean (converted)): 10.5 h | Tmax ([3]; po, Study 2, Treatment A: 5 mg (12.5 mL) liquid formulation by mouth via oral syringe, read-out: Tmax Median): 0.517 h | AUC(0-t) ([3]; po, Study 2, Treatment B: 5 mg (12.5 mL) liquid formulation via NGT followed by 60 mL of D5W via NGT, read-out: AUC(0-T) Geo. Mean): 1210 ng·h/mL | AUC(0-inf) ([3]; po, Study 2, Treatment B: 5 mg (12.5 mL) liquid formulation via NGT followed by 60 mL of D5W via NGT, read-out: AUCinf Geo. Mean): 1240 ng·h/mL | half-life ([3]; po, Study 2, Treatment B: 5 mg (12.5 mL) liquid formulation via NGT followed by 60 mL of D5W via NGT, read-out: T1/2 Mean (converted)): 10.4 h | Tmax ([3]; po, Study 2, Treatment B: 5 mg (12.5 mL) liquid formulation via NGT followed by 60 mL of D5W via NGT, read-out: Tmax Median): 1 h | AUC(0-t) ([3]; po, Study 2, Treatment C: 5 mg (12.5 mL) liquid formulation via NGT followed by 60 mL of infant formula via NGT, read-out: AUC(0-T) Geo. Mean): 1150 ng·h/mL | AUC(0-inf) ([3]; po, Study 2, Treatment C: 5 mg (12.5 mL) liquid formulation via NGT followed by 60 mL of infant formula via NGT, read-out: AUCinf Geo. Mean): 1180 ng·h/mL | half-life ([3]; po, Study 2, Treatment C: 5 mg (12.5 mL) liquid formulation via NGT followed by 60 mL of infant formula via NGT, read-out: T1/2 Mean (converted)): 10.6 h | Tmax ([3]; po, Study 2, Treatment C: 5 mg (12.5 mL) liquid formulation via NGT followed by 60 mL of infant formula via NGT, read-out: Tmax Median): 1 h | Cmax Adj.Geo.Mean ([4]; Study 1, Treatment A: 2 × 5 mg Phase 3 tablets): 294 ng/mL | Cmax Geo. Mean [4, 5]: 294 ng/mL | Tmax Median [4, 5]: 2 h | Cmax Adj.Geo.Mean ([4]; Study 1, Treatment B: 25 mL × 0.4 mg/mL liquid formulation): 287 ng/mL | Cmax Geo. Mean ([4]; Study 1, Treatment B: 25 mL × 0.4 mg/mL liquid formulation, oral, healthy subjects): 287 ng/mL | Tmax ([4]; 10 mg, Study 1, Treatment B: 25 mL × 0.4 mg/mL liquid formulation, oral, healthy subjects, read-out: Tmax Median): 2 h | AUC(0-t) ([4]; oral, 10 mg, Study 1, Treatment A: 2 × 5 mg Phase 3 tablets, read-out: AUC(0-T) Adj.Geo.Mean): 2670 ng·h/mL | AUC(0-inf) ([4]; oral, 10 mg, Study 1, Treatment A: 2 × 5 mg Phase 3 tablets, read-out: AUCinf Adj.Geo.Mean): 2710 ng·h/mL | AUC(0-t) ([4]; oral, 10 mg, Study 1, Treatment B: 25 mL × 0.4 mg/mL liquid formulation, read-out: AUC(0-T) Adj.Geo.Mean): 2780 ng·h/mL | AUC(0-inf) ([4]; oral, 10 mg, Study 1, Treatment B: 25 mL × 0.4 mg/mL liquid formulation, read-out: AUCinf Adj.Geo.Mean): 2850 ng·h/mL | AUC(0-t) ([4]; po, 10 mg, Study 1, Treatment A: 2 × 5 mg Phase 3 tablets, oral, healthy subjects, read-out: AUC(0-T) Geo. Mean): 2660 ng·h/mL | AUC(0-inf) ([4]; po, 10 mg, Study 1, Treatment A: 2 × 5 mg Phase 3 tablets, oral, healthy subjects, read-out: AUCinf Geo. Mean): 2710 ng·h/mL | half-life ([4]; po, 10 mg, Study 1, Treatment A: 2 × 5 mg Phase 3 tablets, oral, healthy subjects): 12.3 h | AUC(0-t) ([4]; po, 10 mg, Study 1, Treatment B: 25 mL × 0.4 mg/mL liquid formulation, oral, healthy subjects, read-out: AUC(0-T) Geo. Mean): 2790 ng·h/mL | AUC(0-inf) ([4]; po, 10 mg, Study 1, Treatment B: 25 mL × 0.4 mg/mL liquid formulation, oral, healthy subjects, read-out: AUCinf Geo. Mean): 2860 ng·h/mL | half-life ([4]; po, 10 mg, Study 1, Treatment B: 25 mL × 0.4 mg/mL liquid formulation, oral, healthy subjects): 13.8 h | Tmax ([4]; summary over all treatments of Studies 1-3 except BOOST Plus, read-out: Tmax median): 0.5 to 2 h
